From article PMC12406203 (Journal of Medicinal Chemistry, 2025)

What was measured:
panel of 103 kinases = experiment: KINOMEscan kinase selectivity profiling (whole panel); format: binding; conditions: 10 and 1 μM
Protocol: The kinase inhibition profile of compounds 94 and 95 was assessed against 103 protein kinases by Eurofins DiscoverX, LLC., using the KINOMEscan assay. Kinase-tagged T7 phage strains were grown in parallel in 24-well blocks in an E. coli host derived from the BL21 strain. E. coli were grown to log-phase and infected with T7 phage from a frozen stock (multiplicity of infection = 0.4) and incubated with shaking at 32 °C until lysis (90–150 min). The lysates were centrifuged (6000g) and filtered (0.2 μm) to remove cell debris. The remaining kinases were produced in HEK-293 cells and subsequently tagged with DNA for qPCR detection. […] The liganded beads were blocked with excess biotin and washed with blocking buffer (SeaBlock (Pierce), 1% BSA, 0.05% Tween 20, 1 mM DTT) to remove unbound ligand and to reduce nonspecific phage binding. […] Test compounds were prepared as 100× stocks in 100% DMSO and directly diluted into the assay. All reactions were performed in polypropylene 384-well plates in a final volume of 0.02 mL. […] The kinase concentration in the eluates was measured by qPCR.
The compound(s) were screened at the concentration(s) requested, and results for primary screen binding interactions are reported as RA (%), where lower numbers indicate stronger hits in the matrix. RA=(testcompoundsignal−PCsignal/NCsignal−PCsignal)×100
Test compound = Cpd. […]

Row | SMILES | RA at 100 µM (hAChE) | kinase selectivity (panel of 103 kinases) | RA @ 1000nM (RIOK2) | RA @ 10000nM (RIOK2)
1 | CN(C)CCNC(=O)c1cc2c(cnn2CC2CCCCC2)cc1Cc1ccc(F)cc1F [Compound 95, 1-(Cyclohexylmethyl)-5-(2,4-difluorobenzyl)-N-(2-(dimethylamino)ethyl)-1H-indazole-6-carboxamide] | 53.4 ± 0.8% | high selectivity for p38α MAPK | 88% | 81%
2 | CC(C)Cn1ncc2cc(Cc3ccc(F)cc3F)c(C(=O)NCCN(C)C)cc21 [Compound 94, 5-(2,4-Difluorobenzyl)-N-(2-(dimethylamino)ethyl)-1-isobutyl-1H-indazole-6-carboxamide] |  | high selectivity for p38α MAPK | 85% | 92%
